According to patent US5559158A, “Pharmaceutical composition” (Abbott Laboratories, priority 1994, dated 1996):

Assays:
HIV-1 protease = test: Inhibition of HIV-1 protease; assay type: biochemical; conditions: in words
HIV-2 protease = test: Inhibition of HIV-2 protease; assay type: biochemical; conditions: in words
[1] = Oral bioavailability study in dogs; set-up: species or system beagle dogs; conditions: dog, in vivo, 5 mg/kg, summary statement, dose not stated
Experimental: Each dog received a single solid dosage form corresponding to a 5 mg/kg dose of the drug.

[2] = listed as compound of formula II

| SMILES | inhibition of HIV-1 protease (HIV-1 protease) | inhibition of HIV-2 protease (HIV-2 protease) | bioavailability [1] [%] | inhibition of HIV-1 protease (HIV-1 protease; [2]) | inhibition of HIV-2 protease (HIV-2 protease; [2]) |
| --- | --- | --- | --- | --- | --- |
| CC(C)c1nc(CN(C)C(=O)NC(C(=O)N[C@@H](Cc2ccccc2)C[C@H](O)[C@H](Cc2ccccc2)NC(=O)OCc2cncs2)C(C)C)cs1 (stereo partly drawn) [Compound III, (2S,3S,5S)-5-(N-(N-((N-Methyl-N-((2-isopropyl-4-thiazolyl)methyl)-amino)carbonyl)valinyl)amino)-2-(N((5-thiazolyl)methoxycarbonyl)amino)-1,6-diphenyl-3-hydroxyhexane] | inhibitors | inhibitors | < 2 | – | – |
| CC(C)c1nc(CN(C)C(=O)NC(C(=O)NC(Cc2ccccc2)CC(O)C(Cc2ccccc2)NC(=O)OCc2cncs2)C(C)C)cs1 (stereo not shown) [Compound II] | inhibitors | inhibitors | – | especially effective | especially effective |
